# In PMC5306062, “Pharmacology and toxicology of the novel investigational agent Cantrixil (TRX-E-002-1)” (Cancer Chemotherapy and Pharmacology, 2016):
# Like-named read-outs stand apart in the source and are kept apart here.
# Columns and labels:
# [1] = system: Escherichia coli strain WP2uvrA; experiment: Bacterial reverse mutation test, plate assay; type: cell-based; details: absence or presence of S9 mix
# Protocol: (§1) The assays were performed in compliance with GLP regulations.
# (§2) The bacterial reverse mutation test employed Salmonella typhimurium strains TA1535, TA1537, TA98 and TA100, and Escherichia coli strain WP2uvrA in a conventional plate assay, with and without exogenous metabolic activation by a rat liver post-mitochondrial fraction (S9 mix).
# [2] = system: Salmonella typhimurium strains TA1535, TA1537, TA98 and TA100; experiment: Bacterial reverse mutation test, plate assay; type: cell-based; details: absence or presence of S9 mix
# Protocol: as §1, §2
# tumour spheroids = experiment: Degradation of tumour spheroids; type: cell-based, human
# Excerpt: (§3) Tumour recurrence post-chemotherapy is caused by the regrowth of the surviving innately drug-resistant cancer stem cells that remain in tumour niches during and post-chemotherapy. The expansion of this chemo-resistant cancer cell population, coupled with upregulation of pro-survival pathways due to drug pressure, is thought to be responsible for the development of chemo-resistant recurrent disease. Further, the inherent heterogeneity of ovarian tumours consists of epithelial cells with varying potential for stemness, and a population of cancer cells with varying mesenchymal status and invasiveness potential. Therefore, to improve survival, a practical approach is the use of novel therapies that can induce cell death in these various subtypes of ovarian cancer cells. TRX-E-002-1 was assessed against ovarian cancer stem cell line OCSC2, characterised by their expression of stem cell markers including CD44 and […] [22]. A major characteristic of these cells is that they are drug resistant, able to form self-renewing spheroids in non-adherent culture, and recreate disseminated drug-resistant ovarian tumours that have a high degree of heterogeneity similar to the clinical profile observed in patients when inoculated into the peritoneal cavity of an immune-compromised mouse.
# [3] = Rat pharmacokinetics after single intraperitoneal injection of 100 mg/kg; type: in vivo, Sprague–Dawley rats; details: for AUC(0-inf) / Tmax / half-life: Sprague-Dawley, rat, ip, plasma
# Protocol: The pharmacokinetics of TRX-E-002-1 was evaluated in male female Sprague–Dawley rats following a single intraperitoneal injection of 100 mg/kg TRX-E-002-1 in 20% SBECD vehicle. Absorption was rapid, with C max mean plasma concentrations reached 0.25/1 h after dosing in female/male rats. […] Mean plasma levels decreased to below the limit of quantification by 24 h (not shown). The AUC0−∞ value was 29,537 and 44,702 ng h/mL in female and male rats, respectively (Table 2). High tissue levels were observed 0.5–6 h after dosing, with levels higher than the plasma concentration in pancreas, ovaries, large intestine, skin, kidneys, liver, stomach and adrenal glands (not shown). Treatment of plasma and tissue samples with glucuronidase indicated the presence of low levels of a glucuronide conjugate of TRX-E-002-1 (not shown). Other metabolic pathways have not yet been investigated. […] Parent drug was excreted in the urine and faeces, and high levels of the glucuronide metabolite were found in the faeces.
# Tissue concentrations of total drug (parent + glucuronide) were also similar to those in plasma except in liver, where they were 2–3 times higher.
# [4] = system: disseminated ovarian cancer model; experiment: Disseminated ovarian cancer model, intraperitoneal dosing; type: in vivo, mice
# Excerpt: In vivo, TRX-E-002-1, formulated in 20% SBECD, was active in a disseminated ovarian cancer model and a recurrent ovarian cancer model in which tumour recurrence is investigated following initial treatment of the OCSC2-inoculated mice with paclitaxel. In both models, TRX-E-002-1 inhibited tumour growth following once daily intraperitoneal administration.
# The combination of TRX-E-002-1 and cisplatin was investigated in the murine model of disseminated ovarian cancer.
# caspases 3/7 and 9 = experiment: Caspase activity in OCSC2 cells; type: cell-based, human
# Protocol: The role of caspases and intracellular signalling pathways in the anticancer activity of TRX-E-002-1 was investigated in OCSC2 ovarian cancer stem cells. […] TRX-E-002-1 also modulated phosphorylation of intracellular signalling molecules, with decreased levels of pERK (phosphorylated extracellular signal-regulated kinase) and increased levels of phosphorylated c-Jun (p–c-Jun). Activated p–c-Jun levels increased progressively over the 24-h incubation period in response to both concentrations of TRX-E-002-1 tested. […] Increased p–c-Jun and decreased pERK levels were observed following incubation of OCSC2 cells after only 2-h’ exposure, indicating these changes are one of the earliest effects of TRX-E-002-1 treatment.
# [5] = system: co-cultures which mimic tumour heterogeneity; experiment: Co-culture studies with cisplatin; type: cell-based, human
# Excerpt: as §3
# [6] = Dog GLP 28-day repeat-dose study, intraperitoneal three times per week; type: in vivo, beagle dogs
# Protocol: For the dog GLP 28-day repeat-dose study, beagle dogs received intraperitoneal injections of vehicle (3:20 dilution of 20% SBECD in 0.9% saline) or Cantrixil (1, 10 or 30 mg/kg) three times per week for 4 weeks via an implanted catheter. Blood samples were collected from all dogs at 0.25, 0.5, 1, 2, 4 and 24 h after dosing on Days 1 and 26. […] Mean C max and AUClast values were similar in males and females and were greater than proportional to dose. […] Corresponding mean AUClast values on Day 1 were 71.4/80.5, 2810/2260 and 10,500/11,000 ng h/mL, respectively, for males/females.
# Treatment-related clinical signs observed in males and females at 10 or 30 mg/kg included emesis, and soft or liquid faeces. […] Food consumption was affected to a lesser extent in females at 30 mg/kg and was not associated with discernible effect on body weight gain.
# Similar changes were apparent but less severe in high-dose males and females after the 2-week recovery period. Coagulation parameters, serum chemistry, urinalysis and bone marrow examinations were unremarkable.
# Red discoloration in the caecum was also observed in all male dogs and one female dog in the 30 mg/kg group. […] No treatment-related macroscopic abnormalities were observed after the recovery period.
# In summary, the main toxicity findings following intraperitoneal administration of TRX-E-002-1 30 mg/kg in SBECD to beagle dogs three times per week for 4 weeks were emesis, soft and/or liquid faeces, leukocytosis with elevated neutrophil and monocyte counts, red discoloration in the caecum and degenerative changes in male reproductive organs. Some of these effects were also observed at the mid-dose of 10 mg/kg, while 1 mg/kg was a clear no-effect dose. […] No differences between sexes were apparent in toxic effects or systemic exposure, and the NOAEL for combined sexes was 10 mg/kg. The 10 mg/kg dose was also considered the highest non-severely toxic dose (HNSTD), and mean plasma AUClast for combined sexes at this dose was 2310 ng h/mL on Day 26.
smiles,measurement,setting,value
"COc1cc([C@@H]2COc3c(ccc(O)c3C)[C@@H]2c2ccc(O)cc2)cc(OC)c1O [TRX-E-002-1, (+) cis-4-(para-hydroxyphenyl)-7,4′-dihydroxy-3′,5′-dimethoxy-8-methylisoflavan]",number of revertant colonies,[1],no significant increases
same,number of revertant colonies,[2],no significant increases
same,effect on tumour spheroids,tumour spheroids,promoted the degradation
same,time by which mean plasma levels were below the limit of quantification,[3]; 100 mg/kg i.p.,≤ 24 h
same,AUC(0-inf),"[3]; female rats, 100 mg/kg i.p.",29500 ng·h/mL
same,Tmax,"[3]; female rats, 100 mg/kg i.p.",0.25 h
same,AUC(0-inf),"[3]; male rats, 100 mg/kg i.p.",44700 ng·h/mL
same,Tmax,"[3]; male rats, 100 mg/kg i.p.",1 h
same,half-life,"[3]; female rats, 100 mg/kg i.p., read-out: T ½ (plasma elimination half-life) (converted)",~1.3 h
same,half-life,"[3]; male rats, 100 mg/kg i.p., read-out: plasma elimination half-life (converted)",~1.9 h
same,plasma unconjugated TRX-E-002-1 as share of total levels (parent + glucuronide),"[3]; female rats, up to 6 h after dosing",approximately 90%
same,tumour growth,[4]; 100 mg/kg i.p. once daily in 20% SBECD for 13–14 days,significantly inhibited
same,tumour growth during the 16-day treatment period,"[4]; TRX-E-002-1 100 mg/kg once daily, cisplatin 5 mg/kg once weekly, or both",significantly inhibited
same,tumour growth during the 5-week post-treatment period,"[4]; after 16-day treatment, TRX-E-002-1 100 mg/kg once daily, cisplatin 5 mg/kg once weekly, or both",decreased
same,activity of caspases 3/7 and 9,caspases 3/7 and 9,markedly increased
same,effect on effectiveness of cisplatin,[5],enhanced the effectiveness of cisplatin
same,accumulation with three times weekly dosing,[6]; Day 26 vs Day 1,no accumulation
same,NOAEL at 4 weeks,"[6]; both sexes, beagle, dog, in vivo, intraperitoneal, combined sexes",10 mg/kg
same,AUC(0-t),"[6]; both sexes, beagle, dog, plasma, intraperitoneal, combined sexes, 10 mg/kg, Day 26, read-out: mean plasma AUClast",2310 ng·h/mL
same,clear no-effect dose,"[6]; dog, in vivo",1 mg/kg
same,highest non-severely toxic dose (HNSTD),"[6]; dog, in vivo",10 mg/kg
same,NOAEL at 4 weeks,"[6]; female, beagle, dog, in vivo, intraperitoneal, females",30 mg/kg
same,NOAEL at 4 weeks,"[6]; male, beagle, dog, in vivo, intraperitoneal, males",10 mg/kg
